The results in this text go back to patent US8512709B2, “Modified amyloid β peptide” (The Chemo-Sero-Therapeutic Research Institue, priority 2008, dated 2013).

The assay has as its system Aβ peptide (1-40 amino acid sequence). Kind of assay: Anti-Aβ IgG antibody titer of murine serum after immunization with Aβ peptides (ELISA on immobilized Aβ 1-40). The format is in vivo, C57BL/6 mice. The conditions noted are these: for Antibody titer Animal No. 1 / Antibody titer Animal No. 2 / Antibody titer Animal No. 3 / Antibody titer Animal No. 4: C57BL/6 mouse serum, Day 7 from final 3rd immunization; for Antibody titer Animal No. 1 / Antibody titer Animal No. 2 / Antibody titer Animal No. 3 / Antibody titer Animal No. 4 / Antibody titer Mean: 100 μg/mouse; for Antibody titer Mean: mean of 4 mice, serum Day 7 from final 3rd immunization.

[1] abbreviates: Example 4, result in words on Table 4.
Where [2] appears, read: Example 7, result in words on Table 7.
The mark [3] stands for this setting: Example 8, result in words on Table 8.
The mark [4] stands for this setting: Example 2, result in words on Table 2.

Regarding “AEFRHDSGKGAIIGLMVGC (added cysteine) [2-9•28-37AACys, 2-9+28-37-amino acid Aβ peptide with addition of Cysteine]”, for the setting “Example 4”, the “Antibody titer Animal No. 1” value worked out at 7038 ng/mL, the “Antibody titer Animal No. 2” value amounted to 29489 ng/mL, the “Antibody titer Animal No. 3” value amounted to 16 ng/mL and the “Antibody titer Animal No. 4” value stood at 17 ng/mL. For the same sequence, the “Antibody titer Mean” value (Example 4) amounted to 9139.9 ng/mL. The “induction of an antibody to Aβ” value under setting [1] is “observed”.

As to “AEFRHDSGYKGAIIGLMVGC [2-10•28-37AACys, 2-10+28-37-amino acid Aβ peptide with addition of Cysteine]”, under “Example 4”, the “Antibody titer Animal No. 1” value worked out at 72890 ng/mL, the “Antibody titer Animal No. 2” value came out at 57573 ng/mL, the “Antibody titer Animal No. 3” value is 6094 ng/mL and the “Antibody titer Animal No. 4” value was determined as 42593 ng/mL. Also, the “Antibody titer Mean” value (Example 4) is reported as 44787.5 ng/mL. In addition, the “induction of an antibody to Aβ” value under setting [1] is reported as “observed”.

With “DAEFRHDKGAIIGLMVGC [1-7•28-37AACys, 1-7+28-37-amino acid Aβ peptide with addition of Cysteine]”, under “Example 3”, the “Antibody titer Animal No. 1” value is on record as 26 ng/mL, the “Antibody titer Animal No. 2” value came out at 27 ng/mL, the “Antibody titer Animal No. 3” value is on record as 34 ng/mL and the “Antibody titer Animal No. 4” value is recorded as 15 ng/mL. In addition, the “Antibody titer Mean” value (Example 3) came to 25.6 ng/mL.

With “DAEFRHDSGKGAIIGLMVGC [1-9•28-37AACys, 1-9+28-37-amino acid Aβ peptide with addition of Cysteine]”, under “Example 3”, the “Antibody titer Animal No. 1” value is recorded as 398 ng/mL, the “Antibody titer Animal No. 2” value worked out at 249 ng/mL, the “Antibody titer Animal No. 3” value is 2772 ng/mL and the “Antibody titer Animal No. 4” value was 8899 ng/mL. In addition, where the note is “Example 3”, the “Antibody titer Mean” value turned out to be 3079.5 ng/mL. Also, the “induction of an antibody to Aβ” value (Example 3, result in words on Table 3) was “observed”.

On to “DAEFRHDSGYAIIGLMVGGVVIAC [1-10•30-42AACys, 1-10+30-42-amino acid Aβ peptide with addition of Cysteine]”, for which, where the note is “Example 1”, the “Antibody titer Animal No. 1” value was determined as 9 ng/mL, the “Antibody titer Animal No. 2” value is 7 ng/mL, the “Antibody titer Animal No. 3” value is 11 ng/mL and the “Antibody titer Animal No. 4” value is 8 ng/mL. Further, where the note is “Example 1”, the “Antibody titer Mean” value was 8.4 ng/mL.

Consider “DAEFRHDSGYEVHHQKLVCFFAEDVG [1-18Cys19-25AA, 25-amino acid Aβ peptide wherein cysteine is inserted between residues Nos. 18 and 19]”, for which, for the setting “Example 7”, the “Antibody titer Animal No. 1” value was determined as 1.5 ng/mL, the “Antibody titer Animal No. 2” value stood at 6.6 ng/mL, the “Antibody titer Animal No. 3” value was found to be 71.4 ng/mL and the “Antibody titer Animal No. 4” value stood at 1398 ng/mL. The “Antibody titer Mean” value (Example 7) was 369.4 ng/mL. The “induction of an antibody to Aβ” value under setting [2] is recorded as “observed in one of four cases”.

With “DAEFRHDSGYEVHHQKLVCFFAEDVGS [1-18Cys19-26AA, 26-amino acid Aβ peptide wherein cysteine is inserted between residues Nos. 18 and 19]”, where the note is “Example 7”, the “Antibody titer Animal No. 1” value is reported as 127.5 ng/mL, the “Antibody titer Animal No. 2” value was 7001 ng/mL, the “Antibody titer Animal No. 3” value came to 15779 ng/mL and the “Antibody titer Animal No. 4” value was found to be 164 ng/mL. For the setting “Example 7”, the “Antibody titer Mean” value worked out at 5767.9 ng/mL. Also, the “induction of an antibody to Aβ” value under setting [2] is reported as “observed”.

“DAEFRHDSGYEVHHQKLVCFFAEDVGSN [1-18Cys19-27AA, 27-amino acid Aβ peptide wherein cysteine is inserted between residues Nos. 18 and 19]”: where the note is “Example 7”, the “Antibody titer Animal No. 1” value is 2482 ng/mL, the “Antibody titer Animal No. 2” value was determined as 3125 ng/mL, the “Antibody titer Animal No. 3” value was determined as 2631 ng/mL and the “Antibody titer Animal No. 4” value was 17.2 ng/mL. In addition, the “Antibody titer Mean” value (Example 7) amounted to 2063.8 ng/mL. Moreover, the “induction of an antibody to Aβ” value under setting [2] was “observed”.

Consider “DAEFRHDSGYEVHHQKLVCFFAEDVGSNK [1-18Cys19-28AA, 28-amino acid Aβ peptide wherein cysteine is inserted between residues Nos. 18 and 19]”, for which, where the note is “Example 6”, the “Antibody titer Animal No. 1” value is reported as 448154 ng/mL, the “Antibody titer Animal No. 2” value was determined as 97146 ng/mL, the “Antibody titer Animal No. 3” value is on record as 233411 ng/mL and the “Antibody titer Animal No. 4” value was 57794 ng/mL. Besides, the “Antibody titer Mean” value (Example 6) was 209126.3 ng/mL.

Regarding “DAEFRHDSGYEVHHQKLVCFFAEDVGSNKC [1-18Cys19-28AACys]”, under “Example 6”, the “Antibody titer Animal No. 1” value is 19908 ng/mL, the “Antibody titer Animal No. 2” value amounted to 361259 ng/mL, the “Antibody titer Animal No. 3” value is on record as 4161 ng/mL and the “Antibody titer Animal No. 4” value worked out at 29412 ng/mL. Where the note is “Example 6”, the “Antibody titer Mean” value is 103685.0 ng/mL.

For the sequence “DAEFRHDSGYEVHHQKLVCKGAIIGLMVG [1-18Cys28-37AA, Aβ residues 1-18, cysteine, then Aβ residues 28-37]”, for the setting “Example 8”, the “Antibody titer Animal No. 1” value is given as 12541 ng/mL, the “Antibody titer Animal No. 2” value was 1964 ng/mL, the “Antibody titer Animal No. 3” value was 599 ng/mL and the “Antibody titer Animal No. 4” value came out at 25102 ng/mL. In addition, where the note is “Example 8”, the “Antibody titer Mean” value came to 10051.5 ng/mL. Moreover, the “induction of an antibody to Aβ” value under setting [3] is given as “observed”.

On to “DAEFRHDSGYEVHHQKLVCKGAIIGLMVGC [1-18Cys28-37AACys, Aβ residues 1-18, cysteine, Aβ residues 28-37, C-terminal cysteine]”, for which, under “Example 8”, the “Antibody titer Animal No. 1” value is listed as 1073 ng/mL, the “Antibody titer Animal No. 2” value is reported as 43 ng/mL, the “Antibody titer Animal No. 3” value amounted to 10 ng/mL and the “Antibody titer Animal No. 4” value worked out at 4864 ng/mL. The “Antibody titer Mean” value (Example 8) worked out at 1497.5 ng/mL. Moreover, the “induction of an antibody to Aβ” value under setting [3] is “observed”.

In the case of “DAEFRHDSGYEVHHQKLVKGAIIGLMVG [1-18•28-37AA, reference compound]”, under “Example 8”, the “Antibody titer Animal No. 1” value was determined as 11 ng/mL, the “Antibody titer Animal No. 2” value came out at 11 ng/mL, the “Antibody titer Animal No. 3” value was determined as 11 ng/mL and the “Antibody titer Animal No. 4” value was 9 ng/mL. The “Antibody titer Mean” value (Example 8) is on record as 10.5 ng/mL.

Turning to “DAEFRHDSGYEVHHQKLVKGAIIGLMVGC [1-18•28-37AACys]”, under “Example 8”, the “Antibody titer Animal No. 1” value amounted to 11 ng/mL, the “Antibody titer Animal No. 2” value is 9 ng/mL, the “Antibody titer Animal No. 3” value worked out at 10 ng/mL and the “Antibody titer Animal No. 4” value came out at 13 ng/mL. Further, for the setting “Example 8”, the “Antibody titer Mean” value is listed as 10.75 ng/mL.

As to “DAEFRHDSGYEVHHQKLVKGAIIGLMVGGVVIAC [1-18•28-42AACys, 1-18+28-42-amino acid Aβ peptide with addition of Cysteine]”, for the setting “Example 5”, the “Antibody titer Animal No. 1” value stood at 69336 ng/mL, the “Antibody titer Animal No. 2” value is given as 41211 ng/mL, the “Antibody titer Animal No. 3” value was 51611 ng/mL and the “Antibody titer Animal No. 4” value stood at 7004 ng/mL. The “Antibody titer Mean” value (Example 5) is listed as 42290.5 ng/mL.

Regarding “DAEFRHDSGYGAIIGLMVGGVVIAC [1-10•29-42AACys, 1-10+29-42-amino acid Aβ peptide with addition of Cysteine]”, under “Example 1”, the “Antibody titer Animal No. 1” value was determined as 16 ng/mL, the “Antibody titer Animal No. 2” value came to 16 ng/mL, the “Antibody titer Animal No. 3” value is 87 ng/mL and the “Antibody titer Animal No. 4” value is 11 ng/mL. In addition, under “Example 1”, the “Antibody titer Mean” value stood at 32.6 ng/mL.

As for “DAEFRHDSGYKGAIIGLC [1-10•28-34AACys, 1-10+28-34-amino acid Aβ peptide with addition of Cysteine]”, where the note is “Example 2”, the “Antibody titer Animal No. 1” value is listed as 29 ng/mL, the “Antibody titer Animal No. 2” value came out at 30 ng/mL, the “Antibody titer Animal No. 3” value turned out to be 26 ng/mL and the “Antibody titer Animal No. 4” value is on record as 25 ng/mL. For the same sequence, the “Antibody titer Mean” value (Example 2) came to 27.4 ng/mL.

Take “DAEFRHDSGYKGAIIGLMC [1-10•28-35AACys, 1-10+28-35-amino acid Aβ peptide with addition of Cysteine]”: under “Example 2”, the “Antibody titer Animal No. 1” value came out at 44 ng/mL, the “Antibody titer Animal No. 2” value is recorded as 19 ng/mL, the “Antibody titer Animal No. 3” value is 8361 ng/mL and the “Antibody titer Animal No. 4” value was 220 ng/mL. The “Antibody titer Mean” value (Example 2) stood at 2161.0 ng/mL.

“DAEFRHDSGYKGAIIGLMVC [1-10•28-36AACys, 1-10+28-36-amino acid Aβ peptide with addition of Cysteine]”: for the setting “Example 2”, the “Antibody titer Animal No. 1” value was 11821 ng/mL, the “Antibody titer Animal No. 2” value is 259763 ng/mL, the “Antibody titer Animal No. 3” value amounted to 77 ng/mL and the “Antibody titer Animal No. 4” value was determined as 44922 ng/mL. Also, for the setting “Example 2”, the “Antibody titer Mean” value was determined as 79145.6 ng/mL. The “induction of an antibody to Aβ” value under setting [4] was “observed”.

Regarding “DAEFRHDSGYKGAIIGLMVGC [1-10•28-37AACys, 1-10+28-37-amino acid Aβ peptide with addition of Cysteine]”, under “Example 2”, the “Antibody titer Animal No. 1” value was 79708 ng/mL, the “Antibody titer Animal No. 2” value amounted to 1531 ng/mL, the “Antibody titer Animal No. 3” value stood at 24694 ng/mL and the “Antibody titer Animal No. 4” value came out at 100619 ng/mL. The “Antibody titer Mean” value (Example 2) turned out to be 51638.0 ng/mL. For the same sequence, under setting [4], the “induction of an antibody to Aβ” value is recorded as “observed”.
